Laboratory results taken from patent publication US20230286995A1, “METABOLICALLY STABLE PYRIMIDINYL DIHYDROQUINOXALINONES AS TUBULIN POLYMERIZATION INHIBITORS” (UNIVERSITY OF TENNESSEE RESEARCH FOUNDATION, priority 2022, published 2023).
Entries after “also recorded” stand apart in the source; their conditions may differ. Like-named read-outs stand apart in the source and are kept apart here.

Experiments:
DU-145/TxR = test: Cytotoxicity assay (MTS, 72 h); assay type: cell-based; settings: Homo sapiens, DU-145, read-out: IC50 ± SEM (nM) DU-145/TxR; Table 2
Mia PaCa-2 = test: Cytotoxicity assay (MTS, 72 h); assay type: cell-based; settings: Homo sapiens, Table 6, read-out: IC50 (nM) Pancreatic cancer Mia PaCa-2
PC3 = test: Cytotoxicity assay (MTS, 72 h); assay type: cell-based; settings: Homo sapiens, PC-3; Table 6; read-out: IC50 (nM) Prostate cancer PC3
Source text: Cytotoxicity Assay. […] Each experiment consisted of four replicates.

A375/TxR cells = test: Cell cycle analysis (PI, flow cytometry); assay type: cell-based, human; settings: 5v 1, 2, 5 nM, 24 h
[1] = Tolerability assessment of 5v in healthy mice; assay type: in vivo
22RV1 xenografts = test: 22RV1 prostate cancer xenograft model; assay type: in vivo, NSG mice; settings: 1 mg/kg IV, 2 times/week
Experimental: FIG. 19D: Similarly, for 22RV1 prostate cancer xenograft model, we inoculated 2.5×10^6 22RV1 cells subcutaneously into the right flank of each mouse. The cells were prepared in the mixture of FBS and phenol red-free DMEM medium and Matrigel (1:1 ratio). […] We measured tumor volume 2 times a week until reaching the study endpoint.

PANC-1-Luc xenografts = test: PANC-1-Luc subcutaneous xenograft model; assay type: in vivo, NSG mice
Experimental: (§1) All animal procedures were performed in accordance with the protocols approved by the Institutional Animal Care and Use Committee (IACUC) at UTHSC. Two pancreatic cancer cell lines, Mia PaCa-2-Luc and PANC-1-Luc, were used in this study. 50 μL of Mia PaCa-2-Luc (5×10^6 cells in HBSS) or PANC-1-Luc (3×10^6 cells in HBSS) cell suspension was mixed with same volume of Matrigel (1:1 mixture) right before use. Cell mixture was subcutaneously injected to the right flank of each NSG mice (male, 6-8 weeks). […] The control group received no treatment. Treatment started when the average tumor size reached 70-100 mm^3. […] Tumor volume and body weight were measured twice per week. Tumor volume was calculated by the equation: volume (mm^3)=0.5×(length×width^2). All animals were euthanized at the end of the study. Tumors were excised, recorded for ex-vivo weight and size, and imaged.

[2] = rats
[3] = test system: MDA-MB-231 BrM2 brain metastases
[4] = test system: Mia PaCa-2-Luc xenografts; assay type: in vivo, NSG mice; settings: 2 mg/kg i.v., 1 dose/week, 42 days
Experimental: as §1

[5] = test system: PANC-1 and Mia PaCa-2 cell lines; test: Cell cycle analysis (PDAC); assay type: cell-based, human
Experimental: The cells were plated in 100-mm dishes at a concentration of 1-2×10^6 cells/dish in DMEM without serum. After serum starvation for 24 h, medium was replaced with complete culture medium containing tested compounds. For cell cycle analysis, the cells were trypsinized and fixed with 70% ethanol in −20° C. overnight. The fixed cells were incubated with 100 μg/mL of RNase A and 50 μg/mL propidium iodide for 30 min at room temperature. Stained cells were analyzed using Bio-Rad ZE5 and ModFit LT 5.0.9 software at Flow cytometry and cell sorting core at the University of Tennessee Health Science Center (UTHSC) and the proportion of G1, S, G2/M phases were determined.

[6] = test system: MDA-MB-231 BrM2 brain metastases; test: MDA-MB-231-BrM2 brain metastasis model, survival study (Experiment 2); assay type: in vivo, NSG mice
[7] = test system: MDA-MB-231/VxR xenografts; test: Orthotopic MDA-MB-231/VxR xenograft model; assay type: in vivo, NSG mice; settings: 5m IV 1×/wk; Compound 17ya 20 mg/kg 3×/wk
[8] = Microsomal stability assay; settings: Table 3; liver microsomes; mean (% CV)
[9] = Toxicity of 5m at higher dose in mice; assay type: in vivo; settings: 5 mg/kg

Work on `CCNc1nc2c(c(N3CC(=O)Nc4cc(OC)ccc43)n1)CCC2` [Compound 5v, 4-(2-(ethylamino)-6,7-dihydro-5H-cyclopenta[d]pyrimidin-4-yl)-7-methoxy-3,4-dihydroquinoxalin-2(1H)-one] yielded an IC50 (DU-145/TxR) of 1.9 ± 0.3 nM, an IC50 (Mia PaCa-2) of 3.4 ± 0.4 nM and an IC50 (PC3) of 1.7 ± 0.1 nM. For the same compound, the “G2/M phase arrest” value (A375/TxR cells) was “arrested in the G2/M phase to increase dramatically”, the “tolerability” value ([1]; 5 mg/kg IP, five times a week) was “still healthy; also recorded: tolerated at 5 mg/kg IP” and the “tolerability” value ([1]; 5 mg/kg and 10 mg/kg IV, 2 times a week) was “safe and no acute toxicity”. For the same compound, the “tolerability” value ([1]; 10 mg/kg IP, five times a week) was “toxic to mice; also recorded: not 10 mg/kg IP”.

With `COc1ccc2c(c1)NC(=O)CN2c1nc(C)nc2c1CCC2` [Compound 5m, 7-methoxy-4-(2-methyl-6,7-dihydro-5H-cyclopenta[d]pyrimidin-4-yl)-3,4-dihydroquinoxalin-2(1H)-one] the “growth of 22RV1 xenografts” value (22RV1 xenografts) was “remarkable in inhibiting the growth of 22RV1 xenografts”, the “xenograft tumor growth” value (PANC-1-Luc xenografts; 1 mg/kg or 2 mg/kg i.v., 1 dose/week for 7 weeks) was “dose-dependent and significant inhibition of xenograft tumor growth; also recorded: dose-dependently inhibited xenograft tumor growth” and the “body weight vs control” value (PANC-1-Luc xenografts; 49 days, two doses) was “no differences seen in body weight”. The “Clearance” value ([2]; Intravenous (2 mg/kg)) was 36.9 mL/min/kg, the “Cmax” value ([2]; Intravenous (2 mg/kg)) was 806 ng/mL and the “Volume of distribution” value ([2]; Intravenous (2 mg/kg)) was 23.7 L/kg. For the same compound, the “t1/2” value ([2]; Intravenous (2 mg/kg), terminal half-life) was 14.7 h, the “Cumulative urinary excretion (%)” value ([2]; Intravenous (2 mg/kg), unchanged form) was 0.00134% and the “Bioavailability (%)” value ([2]; Oral (5 mg/kg)) was 3.2%. For the same compound, the “Cmax” value ([2]; Oral (5 mg/kg)) was 34.7 ng/mL, the “photon flux in ex vivo brain of representative animal” value ([3]; 1 minute capture, vehicle 6.01×10^7) was 1.51×10^7 p/s and the “body weight” value ([3]; Experiment 1) was “maintain body weight through day 24”. The “extracranial metastasis, ex vivo photon flux” value ([3]; bone, lungs, spleen) was “statistically reduced metastasis to bone, lungs, and spleen”, the “adverse effects at initial dose” value ([3]; mouse, in vivo) was “mice lost weight and had diarrhea” and the “reduction of tumor growth vs control” value [4] was 70-80%. The “cell cycle arrest at G2/M phase” value [5] was “dose dependently increase the proportion of cells in G2/M phase”, the median survival ([6]; 1.0 mg/kg IV twice per week, vehicle 25 days) was 36.5 days and the “body weight” value ([6]; Experiment 2) was “gained weight through day 21 of dosing”. For the same compound, the “survival of all treated mice” value ([6]; all vehicle mice deceased by 30 days) was > 30 days, the “increased metastasis (photon flux) in vehicle vs 5m treated representative mouse” value ([6]; day 28, n=1) was 6.7 fold and the “metastatic progression in the brain, in vivo photon flux” value ([6]; mouse, in vivo) was “delayed metastatic progression in the brain”. The “day until which representative treated mouse lived” value ([6]; vehicle mouse died on day 28) was 35 days, the “tumor growth of MDA-MB-231/VxR xenografts” value [7] was “flat tumor growth curve” and the “Metabolic stability in human t1/2” value [8] was 0.893 h. For the same compound, the “toxicity at higher dose” value [9] was “had toxicity”.
